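Compound exposure: 48 hours, 5 concentrations, 96-well plates. GI50: concentration for 50% inhibition of growth. TGI: total growth inhibition.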
Key:
Assay in all cases: growth of human tumour cells (NCI), 48 h
HOP-18 NSCLC = tested on: HOP-18 NSCLC
HOP-62 NSCLC = tested on: HOP-62 NSCLC
KM12 colon = tested on: KM12 colon
LXFL 529 NSCLC = tested on: LXFL 529 NSCLC
NCI-H226 lung = tested on: NCI-H226 lung
SF-295 CNS = tested on: SF-295 CNS
SF-539 CNS = tested on: SF-539 CNS
SK-MEL-28 melanoma = tested on: SK-MEL-28 melanoma
NCI-H522 lung = tested on: NCI-H522 lung
T-47D breast = tested on: T-47D breast

Row | SMILES | TGI (HOP-18 NSCLC) | TGI (HOP-62 NSCLC) | TGI (KM12 colon) | TGI (LXFL 529 NSCLC) | TGI (NCI-H226 lung) | TGI (SF-295 CNS) | TGI (SF-539 CNS) | TGI (SK-MEL-28 melanoma) | GI50 (HOP-18 NSCLC) | GI50 (HOP-62 NSCLC) | GI50 (KM12 colon) | GI50 (LXFL 529 NSCLC) | GI50 (NCI-H226 lung) | GI50 (SF-295 CNS) | GI50 (SF-539 CNS) | GI50 (SK-MEL-28 melanoma) | TGI (NCI-H522 lung) | GI50 (NCI-H522 lung) | GI50 (T-47D breast) | TGI (T-47D breast)
1 | Cc1ccccc1NC(=O)c1cc(-c2ccc([N+](=O)[O-])cc2)nc(=S)[nH]1 | > 100 µM | > 100 µM | > 100 µM | > 100 µM | > 100 µM | > 100 µM | > 100 µM | > 100 µM | – | – | – | – | – | – | – | – | – | – | – | –
2 | CCC[CH2][Sn]([Cl])([Cl])[CH2]CCC | 2.56 µM | 3.36 µM | 2.81 µM | 0.474 µM | 5.01 µM | 2.92 µM | 2.19 µM | 1.36 µM | 1.29 µM | 1.92 µM | 1.35 µM | 0.138 µM | 1.82 µM | 1.53 µM | 0.87 µM | 0.363 µM | – | – | – | –
3 | CC1=Nc2c(ccc3c2C(=O)c2ccccc2C3=O)NC(c2cccc3c2CCC3)C1 (stereo not given) | > 100 µM | > 100 µM | > 100 µM | > 100 µM | > 100 µM | > 100 µM | > 100 µM | > 100 µM | – | – | – | – | – | – | – | – | > 100 µM | – | – | –
4 | CC1=C[C@H]2c3c([nH]c4ccccc34)C(c3c[nH]c4ccccc34)[C@H]2CC1 (stereo not given in full) | 24.1 µM | – | – | 15.5 µM | 27.7 µM | – | 25.6 µM | 26 µM | – | – | – | – | – | – | – | – | 18.5 µM | – | – | –
5 | O=C(Cc1nc2ccccc2c(=O)n1-c1ccccc1Cl)c1ccncc1 | > 100 µM | > 100 µM | > 100 µM | > 100 µM | > 100 µM | > 100 µM | > 100 µM | > 100 µM | – | – | – | – | – | – | – | – | > 100 µM | – | – | –
6 | COC12CCC(=O)C=C1c1ccccc1N2C(C)=O (stereo not given) | > 100 µM | > 100 µM | > 100 µM | > 100 µM | – | > 100 µM | > 100 µM | > 100 µM | – | – | – | – | – | – | – | – | – | – | – | –
7 | Cc1nn[n-]n1.N.N.N.N.N.[Cl-].[Co+3] | > 100 µM | > 100 µM | > 100 µM | > 100 µM | > 100 µM | > 100 µM | > 100 µM | > 100 µM | > 100 µM | > 100 µM | > 100 µM | > 100 µM | > 100 µM | > 100 µM | > 100 µM | > 100 µM | – | – | – | –
8 | CC1=C(C(=O)CC(=O)C(=O)Nc2cc(C)ccc2C)Sc2ccccc2N1 | > 100 µM | > 100 µM | > 100 µM | > 100 µM | > 100 µM | > 100 µM | > 100 µM | > 100 µM | – | – | – | – | – | – | – | – | > 100 µM | – | – | –
9 | CCCNC(=O)C1C(=O)C(=O)N(CCC)C1=O (stereo not given) | > 100 µM | > 100 µM | > 100 µM | > 100 µM | – | – | > 100 µM | > 100 µM | – | – | – | – | – | – | – | – | > 100 µM | – | – | –
10 | CC1/C=C/[C@@]2(C)CCC(C(C)(C)O)C2C(O)C[C@](C)(O)/C=C/C1 (stereo not given in full) | > 100 µM | > 100 µM | > 100 µM | > 100 µM | 52 µM | > 100 µM | > 100 µM | > 100 µM | – | – | – | – | – | – | – | – | – | – | – | –
11 | CC(=O)N/N=C1\CC(C)(C)C2CCC1C2 (stereo not given) | – | > 100 µM | > 100 µM | > 100 µM | – | > 100 µM | > 100 µM | > 100 µM | – | – | – | – | – | – | – | – | > 100 µM | – | – | –
12 | CCC(=O)c1c(NOC2OCC(OC(C)=O)C(OC(C)=O)C2OC(C)=O)nc(OC)n(C)c1=O (stereo not given) | – | > 100 µM | > 100 µM | > 100 µM | > 100 µM | > 100 µM | > 100 µM | > 100 µM | – | – | – | – | – | – | – | – | – | – | – | –
13 | [C](#Cc1ccccc1)[Hg][C]#Cc1ccccc1 | – | > 100 µM | > 100 µM | – | 63.2 µM | > 100 µM | > 100 µM | 36.2 µM | – | > 100 µM | 94.1 µM | – | 28.1 µM | > 100 µM | 53.1 µM | 14.7 µM | 46.1 µM | 19.4 µM | 28.8 µM | 79.1 µM
14 | C[C@@H]1C[C@H](C)CN(S(=O)(=O)c2ccc3c(NO)c4ccc(S(=O)(=O)N5C[C@H](C)C[C@H](C)C5)cc4c(N=O)c3c2)C1 | – | 0.324 µM | 0.257 µM | – | 0.364 µM | 0.338 µM | 0.207 µM | 0.276 µM | – | 0.171 µM | 0.0833 µM | – | 0.157 µM | 0.178 µM | 0.0564 µM | 0.129 µM | 0.36 µM | 0.181 µM | 0.178 µM | 0.362 µM
15 | COC/C=C\COC | > 100 µM | > 100 µM | > 100 µM | > 100 µM | > 100 µM | > 100 µM | – | > 100 µM | – | – | – | – | – | – | – | – | – | – | – | –
16 | C=C1C(=O)OC2C/C(C)=C/CC/C(C)=C/CCC3(COC(C)=O)OC3CC12 (stereo not given) | 23.3 µM | 34.7 µM | 27.9 µM | 8.1 µM | – | 29.3 µM | 7.85 µM | 23.1 µM | – | – | – | – | – | – | – | – | 2.9 µM | – | – | –
17 | O=C1CC2C(=O)c3ccccc3CC2c2ccccc21 (stereo not given) | – | > 100 µM | > 100 µM | – | > 100 µM | > 100 µM | > 100 µM | > 100 µM | – | – | – | – | – | – | – | – | > 100 µM | – | – | 87.7 µM
18 | CCc1ccc(NC(=O)NC(=O)c2ccccc2[N+](=O)[O-])cc1Oc1ncc(Cl)cn1 | > 100 µM | 75.3 µM | 0.728 µM | > 100 µM | 0.0796 µM | – | – | > 4.64 µM | – | – | – | – | – | – | – | – | – | – | – | –
19 | COc1ccc(N=NC(C(=O)c2ccccc2)C(=O)c2ccccc2)cc1 | – | 68.5 µM | > 100 µM | > 100 µM | 29.9 µM | > 100 µM | 84.9 µM | > 100 µM | – | – | – | – | – | – | – | – | 45 µM | – | – | –
20 | FC(F)(c1ccc2ncccc2c1)c1nnc2ccc(-c3ccncc3)nn12 | – | > 100 µM | > 100 µM | – | > 100 µM | > 100 µM | > 100 µM | > 100 µM | – | 62.7 µM | 69.7 µM | – | 45.9 µM | 2.21 µM | 46.4 µM | > 100 µM | > 100 µM | > 100 µM | 61.9 µM | > 100 µM
21 | NS(=O)(=O)c1ccc(-n2nc3c(c2-c2ccc(Cl)cc2)Cc2ccccc2-3)cc1 | – | 49.4 µM | 52.8 µM | – | 35.4 µM | 82.3 µM | 31.6 µM | 35 µM | – | 30.4 µM | 19.9 µM | – | 16.8 µM | 29.8 µM | 17.5 µM | 18.3 µM | 19.3 µM | 5.63 µM | 91 µM | > 100 µM

From PubChem BioAssay (NCI)
